Test [1] deals with T1, M2R (Homo sapiens, UniProt P08172).
T1 sequence (P08172 1-466): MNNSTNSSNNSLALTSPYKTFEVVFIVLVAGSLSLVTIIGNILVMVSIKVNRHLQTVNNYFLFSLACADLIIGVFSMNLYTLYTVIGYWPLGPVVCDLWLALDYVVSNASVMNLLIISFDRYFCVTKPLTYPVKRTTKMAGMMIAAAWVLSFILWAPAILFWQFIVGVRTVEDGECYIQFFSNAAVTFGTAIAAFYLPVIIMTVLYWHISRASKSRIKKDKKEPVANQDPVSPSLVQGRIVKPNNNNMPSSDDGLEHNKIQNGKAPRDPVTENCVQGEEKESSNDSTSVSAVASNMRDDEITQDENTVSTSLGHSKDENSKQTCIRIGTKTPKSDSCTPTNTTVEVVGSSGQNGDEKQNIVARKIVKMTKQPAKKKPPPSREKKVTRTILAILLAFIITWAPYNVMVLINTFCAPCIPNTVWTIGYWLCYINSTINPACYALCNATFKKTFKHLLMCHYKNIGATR
Description: cell-based. Also on record: expressed in transfected cells; host or cells: HEK 293T. The note with it: for Emax: HEK-293T. As to the method:
Determination of β-arrestin-2 recruitment was performed applying the PathHunter assay (DiscoverX, Birmingham, U.K.) which is based on fragment complementation of β-galactosidase as described. In detail, HEK293T cells were transfected with the flag-tagged M2 receptor carrying the PKA fragment for enzyme complementation and transferred into 384-well micro plates. […] Determination of chemoluminescence was done with a Clariostar plate reader (BMG, Ortenberg, Germany). […] Normalized curves from three to five individual experiments each done in duplicate were analyzed by non-linear regression applying the algorithms in Prism 8.0 (GraphPad, San Diego, CA) to get dose-response curves representing average EC50 and Emax value.

A further test deals with T2, M2R and GoA (Homo sapiens, UniProt P08172).
T2 construct: FLAG (N); 8xHis (C); made in house; host or cells: Sf9 insect cells (receptor)
Briefly: GTPase-Glo assay (GTP turnover) with purified M2R and GoA. Type of test: biochemical. The note with it: purified wild-type receptor and G-protein. As to the method:
The receptors for GTPase-Glo^TM assay were expressed and purified as described above and frozen at −80 °C before use. […] The GTPase reaction was incubated at room temperature (22–25 °C) for different times (15–90 min). […] After incubation, 5 μL reconstituted 1xGTPase-Glo^TM Reagent (Promega) was added to the completed GTPase reaction, mixed briefly and incubated with shaking for 30 min at room temperature (22–25 °C) to convert the remaining GTP into ATP. Then 10 μL Detection Reagent (Promega) was added to the system and incubated for 5-10 min at room temperature (22–25 °C) to convert the ATP into luminescent signals. Luminescence intensity was quantified using a Multimode Plate Reader (PerkinElmer) luminescence counter.

The target of test [2] is T1, M2R.
Test [3] concerns the target T3, M2R (Homo sapiens, UniProt P08172, M139L/M142L/M1T/M248L/M296L/M368L/M456T/M45L).
T3 construct: We used a full-length construct M2RFL△8 M for complexing with miniGαo and β-arrestin-1; FLAG (N); 8xHis (C); made in house; host or cells: Sf9 insect cells
T3 sequence (P08172 1-466 M1T/M45L/M139L/M142L/M248L/M296L/M368L/M456T): T1 sequence (P08172 1-466) with M1T, M45L, M139L, M142L, M248L, M296L, M368L, M456T
Type of test: biochemical. The settings on record: 100 μM Ixo or 1 mM carbachol. As to the method: We used a full-length construct M2RFL△8 M for complexing with miniGαo and β-arrestin-1. The receptor was purified as described above for cryo-EM sample. Excess GRK2 was mixed with the M2R in a buffer composed of 20 mM HEPES pH 7.5, 100 mM NaCl, 0.01% MNG, 0.003% CHS, 500 μM ATP in the presence and absence of 100 μM Ixo or 1 mM carbachol to initiate the phosphorylation at room temperature. The extent of phosphorylation at various time points (from 0 to 120 min) was evaluated by Pro-Q and Coomassie blue staining. The final phosphorylated receptor (Ixo-bound) was further evaluated by ion-exchange chromatography. The complex formation test was performed as follows: unphosphorylated Ixo-bound M2RFL△8 M or phosphorylated M2RFL△8 M was mixed with miniGαo or β-arrestin-1, respectively and incubated on ice for 30 min. The receptor alone or mixed complex sample were then analyzed by SEC against 20 mM HEPES pH 7.5, 100 mM NaCl, 0.01% MNG, 0.003% CHS in the presence of 10 μM Ixo.

Test [4] addresses M2 muscarinic receptor (M2R), wild type (human) (UniProt P08172).

Where a chain is given by its changes, count along the chain named. Several values for one entry are separate records, joined by “and”; a condition that tells them apart may be missing. Equal values may be shown once. Read-outs that look alike come from different tables or passages of the source.

For the compound `Cc1c(Cl)c(OCC(=O)N2CCN(C)CC2)nc2sc(C(=O)NC3CC3)c(N)c12` [LY2119620], the Emax was determined as 46.3% at M2R [1] (read-out: arrestin recruitment as % max effect of acetylcholin, LY2119620 log [M] 3-4); 52.5% on M2R [1] (read-out: arrestin recruitment as % max effect of acetylcholin, LY2119620 log [M] 3-5); 42.1% on M2R [1] (read-out: arrestin recruitment as % max effect of acetylcholin, LY2119620 log [M] -5). The “arrestin recruitment as % max effect of acetylcholin” value at M2R [1] (LY2119620 log [M] 3-4) is 48.9%; at M2R [1] (LY2119620 log [M] 3-5), 50.0% and 48.5%; on M2R [1] (LY2119620 log [M] 3-7), -0.0286% and 2.4%; on M2R [1] (LY2119620 log [M] -4) it was 58.7% and 38.0% and 68.2% and 60.8% and 51.7%; at M2R [1] (LY2119620 log [M] -5), 33.4% and 43.9% and 30.6% and 32.3%; on M2R [1] (LY2119620 log [M] -6), 10.6% and 7.5% and 6.2% and 2.4% and 3.8%. In addition, the “arrestin recruitment as % max effect of acetylcholin” value at M2R [1] (LY2119620 log [M] -7) is 2.1% and 1.5% and 2.0% and 0.9% and 2.9%; on M2R [1] (LY2119620 log [M] -8), 0.6% and 0.5% and 0.9% and -0.171% and -0.548%; at M2R [1] (LY2119620 log [M] -9), 1.3% and -0.4% and -1.2% and -3.6%. Further, the “effect on GTP-turnover for both ACh and Ixo” value at M2R and GoA was “significant inhibitory effects”. Besides, the “activation of the receptor by the modulator on its own” value on M2R [2] is given as “can activate the receptor on its own with low efficacy”. Besides, the “IP accumulation as % max effect of acetylcholin” value at M2R [2] (LY2119620 alone log [M] -4) was 59.0% and 70.9% and 76.8% and 52.3% and 51.5% and 62.7% and 67.1%; at M2R [2] (LY2119620 alone log [M] -10), 3.3% and -1.8% and -2.5% and -3.4% and 3.1%. Further, on M2R [2] (high concentrations of LY2119620), the “inhibition of maximal G-protein activation of both orthosteric agonists” value is reported as ~ 10%.
In the case of `C[N+](C)(C)CCOC(N)=O` [Carbachol, carbachol], the Phosphorylation intensity on M2R [3] (Time 5 min) was 334.849; on M2R [3] (Time 10 min) it was 686.698; at M2R [3] (Time 15 min) it was 1559.5; on M2R [3] (Time 30 min), 4508.03; at M2R [3] (Time 60 min), 11137.8; on M2R [3] (Time 120 min), 15286.
Regarding “heterotrimeric GoA protein (from UniProt P09471 1-354; P62873 2-340; P59768 1-71) (complex)”, in test [4], the increase of the affinity of ACh in [3H]-NMS competition binding on M2R in HDL particles on addition of GoA amounted to 65 fold and the increase of the affinity of Ixo in [3H]-NMS competition binding on M2R in HDL particles on addition of GoA amounted to 27 fold.

Source of the values: article PMC9870890 (Nature Communications, 2023).
